Reference: PMC12398837 (Journal of Pharmaceutical Analysis, 2025)
Where a name gives a salt, the structure may show the parent alone. Read-outs that look alike come from different tables or passages of the source.

What was measured:
[1] = cited from earlier work
hDAT = molecular target: T1, hDAT (Homo sapiens, UniProt Q01959); assay: Neurotransmitter Transporter Uptake Assay Kit, DA reuptake inhibition; format: cell-based; conditions: Table 1; inhibition of dopamine reuptake, reduction of RFU
T1 construct: expressed in transfected cells; host or cells: HEK-293T (HEK293T), stably transfected
Experimental: DA uptake activity was measured using a Neurotransmitter Transporter Uptake Assay Kit (Molecular Devices, San Jose, CA, USA). […] 2-[4-(2-hydroxyethyl)-1-piperazinyl] ethanesulfonic acid (HEPES) buffer solution (150 mM NaCl, 5 mM KCl, 10 mM glucose, 2 mM CaCl2, 1 mM MgCl2, 10 mM HEPES, pH 7.4) was used to wash cells three times before the experiment. Cells in the experimental group were treated with six different compounds. After 15 min, the dye solution was added and the fluorescence intensity was measured for 30 min in the 520 nm range with excitation at 440 nm. The inhibition percentages were calculated using the end point measurements at 30 min. The four-parameter logistic nonlinear regression model was used to determine the half maximal inhibitory concentration (IC50) values.
The DA reuptake inhibitory activities of the six repurposed drugs were evaluated using the Neurotransmitter Transporter Uptake Assay Kit through dose-response assays. This assay employs a novel fluorescent indicator dye designed to mimic neurotransmitters, along with a masking dye to quench extracellular fluorescence, enabling precise measurement of transporter-mediated uptake activity.

T1 sequence (Q01959 whole entry): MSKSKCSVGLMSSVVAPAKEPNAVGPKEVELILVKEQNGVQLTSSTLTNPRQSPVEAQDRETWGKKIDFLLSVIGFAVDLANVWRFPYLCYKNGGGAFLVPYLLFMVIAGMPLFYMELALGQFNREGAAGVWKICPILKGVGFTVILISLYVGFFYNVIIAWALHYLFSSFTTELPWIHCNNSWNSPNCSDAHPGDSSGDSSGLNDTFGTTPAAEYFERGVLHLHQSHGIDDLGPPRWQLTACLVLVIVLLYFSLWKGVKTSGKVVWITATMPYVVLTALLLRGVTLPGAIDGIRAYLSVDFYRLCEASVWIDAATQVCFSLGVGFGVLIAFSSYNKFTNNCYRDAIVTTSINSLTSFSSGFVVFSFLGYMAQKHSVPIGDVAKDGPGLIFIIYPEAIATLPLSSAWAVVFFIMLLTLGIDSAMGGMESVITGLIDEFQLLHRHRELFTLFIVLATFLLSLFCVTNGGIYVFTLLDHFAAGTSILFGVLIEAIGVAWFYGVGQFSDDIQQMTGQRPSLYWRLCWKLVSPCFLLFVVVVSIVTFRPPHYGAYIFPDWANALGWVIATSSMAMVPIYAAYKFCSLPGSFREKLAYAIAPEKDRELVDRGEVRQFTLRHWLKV

CCCN1CCCC[C@H]1C(=O)Nc1c(C)cccc1C [Compound 4, Ropivacaine]
CNS and cardiac toxicity ([1]; previous research): mild CNS and cardiac toxicity | IC50 (hDAT): 753 nM

Cc1cccc(C)c1NC(=O)C1CCCCN1C (stereo not drawn) [Compound 14, Mepivacaine hydrochloride]
metabolism ([1]; restricts application to peripheral nerve blockade): rapid metabolism | IC50 (hDAT): 542 nM

CCCCN1CCCC[C@H]1C(=O)Nc1c(C)cccc1C [Compound 19, Levobupivacaine]
CNS and cardiac toxicity ([1]; particularly under acidosis and hyperkalemia): mild CNS and cardiac toxicity | IC50 (hDAT): 1210 nM
